# Experimental data from patent publication US4420484A, “Basic amino or ammonium antimicrobial agent-polyethylene glycol ester surfactant-betaine and/or amine oxide surfactant compositions and method of use therof” (Sterling Drug Inc., priority 1981, dated 1983).
# Test system: Staphylococcus aureus ATCC 6538
# Test: Compatibility with prototype vehicle, serial dilution test (MIC)
# Assay type: cell-based
# Conditions: Id expressed as free base, IVa-IVc expressed as cation, 16-18 h, 37° C
# Procedure: Compatability of the antimicrobial agents of Formula Id, Formula IIa, Formula IVa (A=Br), Formula IVb (A=Br) and Formula IVc (A=Br) with a prototype vehicle of the invention was tested by a serial dilution test against Staphylococcus aureus ATCC 6538. Volumes of two milliliters were used. Dilutions were in tryptose-phosphate broth. Incubation was for 16-18 hours at 37° C. Growth was verified with 2,3,5-triphenyltetrazoliumchloride. The inoculum was 1.8×10^5 viable cells per tube. There follows the formula of the prototype vehicle. […]
SMILES,Minimum Inhibitory Concentration (MIC) (added vehicle 0 μg/ml) [µg/mL],Minimum Inhibitory Concentration (MIC) (added vehicle 15.6 μg/ml) [µg/mL],Minimum Inhibitory Concentration (MIC) (added vehicle 31.2 μg/ml) [µg/mL],Minimum Inhibitory Concentration (MIC) (added vehicle 62.5 μg/ml) [µg/mL],Minimum Inhibitory Concentration (MIC) (added vehicle 125.0 μg/ml) [µg/mL],Minimum Inhibitory Concentration (MIC) (added vehicle 250.0 μg/ml) [µg/mL],Minimum Inhibitory Concentration (MIC) (added vehicle 500.0 μg/ml) [µg/mL],Minimum Inhibitory Concentration (MIC) (added vehicle 1000.0 μg/ml) [µg/mL],Minimum Inhibitory Concentration (MIC) (added vehicle 2000.0 μg/ml) [µg/mL],Minimum Inhibitory Concentration (MIC) (added vehicle 4000.0 μg/ml) [µg/mL],Minimum Inhibitory Concentration (MIC) (added vehicle 8000.0 μg/ml) [µg/mL]
"CCCCCCCCCCCCCC[N+](C)(C)Cc1ccccc1 [Compound of Formula IIa, benzalkonium chloride, reference compound]",0.5,0.5,0.5,0.5,0.5,0.5,0.5,1.0,1.0,1.95,1.95
CCCCCCCN=c1ccn(CCCCCCCCCCCCn2ccc(=NCCCCCCC)cc2)cc1 [Compound of Formula IVa],0.39,0.195,0.39,0.39,0.10,0.10,0.10,0.195,0.10,0.195,0.10
CCCCCCCCN=c1ccn(CCCCCCCCCCn2ccc(=NCCCCCCCC)cc2)cc1 [Compound of Formula IVb],0.5,0.5,0.5,0.5,0.5,0.25,0.125,0.125,0.125,0.25,0.25
CCCCC(CC)CN=c1ccn(CCCCCCCCCCCCn2ccc(=NCC(CC)CCCC)cc2)cc1 (stereo not shown) [Compound of Formula IVc],0.25,0.25,0.25,0.25,0.125,0.0625,0.125,0.125,0.125,0.25,0.25
CCCCCCCNC(=N)NC(=N)NCCCCCCNC(=N)NC(=N)NCCCCCCC [Compound of Formula Id],0.25,0.25,0.25,0.25,0.25,0.25,0.25,0.25,0.50,0.50,0.50
